pEC50: −log10 of the molar value.

The subject of this assay is NQO1 specific enzyme activity in BEAS-2B cells (marker for NRF2 activation). Briefly: BEAS-2B NQO1 MTT Assay. The conditions noted are these: Homo sapiens, BEAS-2B, 48 h, NQO1 specific activity induction, 48 hours with compound. It is filed as cell-based. An excerpt: NAD(P)H:quinone oxidoreductase 1 (NQO1), also called DT diaphorase, is a homodimeric FAD-containing enzyme that catalyzes obligatory NAD(P)H-dependent two-electron reductions of quinones and protects cells against the toxic and neoplastic effects of free radicals and reactive oxygen species arising from one-electron reductions. The transcription of NQO1 is finely regulated by NRF2, and thus NQO1 activity is a good marker for NRF2 activation. On day one, frozen BEAS-2B cells (ATCC) were thawed in a water bath, counted, and re-suspended at a concentration of 250,000 cells/mL. Fifty microliters of cells were plated in 384 well black clear-bottomed plates. Plates were incubated at 37° C., 5% CO2 overnight. On day two, plates were centrifuged and 50 nL of compound or controls were added to the cells. Plates were then incubated at 37° C., 5% CO2 for 48 hours. On day four, medium was aspirated from the plate and crude cell lysates were made by adding 13 uL of 1× Cell Signaling Technologies lysis buffer with 1 Complete, Mini, EDTA-free Protease Inhibitor Tablet (Roche) for each 10 mL of lysis buffer. After lysis plates were incubated for 20 minutes at room temperature. Two microliters of lysate were removed for use in Cell Titer Glo assay (Promega) and MTT cocktail was prepared (Prochaska et. al. 1998) for measurement of NQO1 activity. Fifty microliters of MTT cocktail was added to each well, plate was centrifuged, and analyzed on an Envision plate reader (Perkin Elmer) using Absorbance 570 nm label for 30 minutes. Product formation was measured kinetically and the pEC50 of NQO1 specific activity induction was calculated by plotting the change in absorbance (Delta OD/min) versus the log of compound concentration followed by 3-parameter fitting.
pEC50 is the negative log of the EC50.
EC50s<1 nM (+++++), EC50s 1 nM-10 nM (++++), EC50s 10 nM-100 nM (+++), EC50s 100 nM-1 uM (++), EC50s 1 uM-10 uM (+); EC50s>10 uM (−), or were not determined (ND).
Broadly, the pEC50 is −log10 of the EC50, conventionally taken in molar units. Take `CC[C@@H]1CN(Cc2cc(C(OCc3cn(Cc4cccc(Cn5cc(CO)nn5)c4)nn3)C(C)(C)C(=O)O)ccc2C)S(=O)(=O)c2ccccc2O1` (stereo partly drawn) [Example 28, 3-(3-(((R)-4-ethyl-1,1-dioxido-3,4-dihydro-2H-benzo[b][1,4,5]oxathiazepin-2-yl)methyl)-4-methylphenyl)-3-((1-(3-((4-(hydroxymethyl)-1H-1,2,3-triazol-1-yl)methyl)benzyl)-1H-1,2,3-triazol-4-yl)methoxy)-2,2-dimethyl-propanoic acid]: the pEC50 is 7.00 to 8.00.

On to `Cc1cc(Cn2cc(CO)nn2)cc(Cn2cc(COC(c3ccc(C)c(CN4C[C@@H](C)Oc5ccccc5S4(=O)=O)c3)C(C)(C)C(=O)O)nn2)c1` (stereo partly drawn) [Example 29, 3-((1-(3-((4-(Hydroxy-methyl)-1H-1,2,3-triazol-1-yl)methyl)-5-methylbenzyl)-1H-1,2,3-triazol-4-yl)methoxy)-2,2-dimethyl-3-(4-methyl-3-(((R)-4-methyl-1,1-dioxido-3,4-dihydro-2H-benzo[b][1,4,5]oxathiazepin-2-yl)methyl)phenyl)propanoic acid], for which the pEC50 is 7.00 to 8.00.

Take `Cc1ccc(C(OCc2cn(CC3CCN(C(=O)C4CCCCC4)CC3)nn2)C(C)(C)C(=O)O)cc1CN1C[C@@H](C)Oc2ccccc2S1(=O)=O` (stereo partly drawn) [Example 30, 3-((1-((1-(Cyclohexanecarbonyl)piperidin-4-yl)methyl)-1H-1,2,3-triazol-4-yl)methoxy)-2,2-dimethyl-3-(4-methyl-3-(((R)-4-methyl-1,1-dioxido-3,4-dihydro-2H-benzo[b][1,4,5]oxathiazepin-2-yl)methyl)phenyl)propanoic acid]: the pEC50 was 8.00 to 9.00.

`Cc1ccc(C(OCc2cn(CC3CCN(C(=O)c4ccccc4)CC3)nn2)C(C)(C)C(=O)O)cc1CN1C[C@@H](C)Oc2ccccc2S1(=O)=O` (stereo partly drawn) [Example 31, 3-((1-((1-Benzoylpiperidin-4-yl)methyl)-1H-1,2,3-triazol-4-yl)methoxy)-2,2-dimethyl-3-(4-methyl-3-(((R)-4-methyl-1,1-dioxido-3,4-dihydro-2H-benzo[b][1,4,5]oxathiazepin-2-yl)methyl)phenyl)propanoic acid]: the negative-log EC50 (pEC50) is 7.00 to 8.00.

For `CC(=O)N1CCC(Cn2cc(COC(c3ccc(C)c(CN4C[C@@H](C)Oc5ccccc5S4(=O)=O)c3)C(C)(C)C(=O)O)nn2)CC1` (stereo partly drawn) [Example 32, 3-((1-((1-Acetylpiperidin-4-yl)methyl)-1H-1,2,3-triazol-4-yl)methoxy)-2,2-dimethyl-3-(4-methyl-3-(((R)-4-methyl-1,1-dioxido-3,4-dihydro-2H-benzo[b][1,4,5]oxathiazepin-2-yl)methyl)phenyl)propanoic acid], the pEC50 is 7.00 to 8.00.

Turning to `CCC(=O)N1CCC(Cn2cc(COC(c3ccc(C)c(CN4C[C@@H](C)Oc5ccccc5S4(=O)=O)c3)C(C)(C)C(=O)O)nn2)CC1` (stereo partly drawn) [Example 33, 2,2-Dimethyl-3-(4-methyl-3-(((R)-4-methyl-1,1-dioxido-3,4-dihydro-2H-benzo[b][1,4,5]oxathiazepin-2-yl)methyl)phenyl)-3-((1-((1-propionylpiperidin-4-yl)methyl)-1H-1,2,3-triazol-4-yl)methoxy)propanoic acid], the pEC50 is 7.00 to 8.00.

With `CCCC(=O)N1CCC(Cn2cc(COC(c3ccc(C)c(CN4C[C@@H](C)Oc5ccccc5S4(=O)=O)c3)C(C)(C)C(=O)O)nn2)CC1` (stereo partly drawn) [Example 34, 3-((1-((1-Butyrylpiperidin-4-yl)methyl)-1H-1,2,3-triazol-4-yl)methoxy)-2,2-dimethyl-3-(4-methyl-3-(((R)-4-methyl-1,1-dioxido-3,4-dihydro-2H-benzo[b][1,4,5]oxathiazepin-2-yl)methyl)phenyl)propanoic acid], the pEC50 is 7.00 to 8.00.

In the case of `Cc1ccc(C(OCc2cn(CC3CCN(C(=O)C4CCOCC4)CC3)nn2)C(C)(C)C(=O)O)cc1CN1C[C@@H](C)Oc2ccccc2S1(=O)=O` (stereo partly drawn) [Example 35, 2,2-Dimethyl-3-(4-methyl-3-(((R)-4-methyl-1,1-dioxido-3,4-dihydro-2H-benzo[b][1,4,5]oxathiazepin-2-yl)methyl)phenyl)-3-((1-((1-(tetrahydro-2H-pyran-4-carbonyl)piperidin-4-yl)methyl)-1H-1,2,3-triazol-4-yl)methoxy)propanoic acid], the negative logarithm of the EC50 (pEC50) is 6.00 to 7.00.

Consider `Cc1ccc(C(OCc2cn(CC3CCN(S(C)(=O)=O)CC3)nn2)C(C)(C)C(=O)O)cc1CN1C[C@@H](C)Oc2ccccc2S1(=O)=O` (stereo partly drawn) [Example 36, 2,2-Dimethyl-3-(4-methyl-3-(((R)-4-methyl-1,1-dioxido-3,4-dihydro-2H-benzo[b][1,4,5]oxathiazepin-2-yl)methyl)phenyl)-3-((1-((1-(methylsulfonyl)piperidin-4-yl)methyl)-1H-1,2,3-triazol-4-yl)methoxy)propanoic acid], for which the pEC50 is 7.00 to 8.00.

`Cc1ccc(C(OCc2cn(Cc3cccc(Cn4cc(C(C)C)nn4)c3)nn2)C(C)(C)C(=O)O)cc1CN1C[C@@H](C)Oc2ccccc2S1(=O)=O` (stereo partly drawn) [Example 37, 3-((1-(3-((4-Isopropyl-1H-1,2,3-triazol-1-yl)methyl)benzyl)-1H-1,2,3-triazol-4-yl)methoxy)-2,2-dimethyl-3-(4-methyl-3-(((R)-4-methyl-1,1-dioxido-3,4-dihydro-2H-benzo[b][1,4,5]oxathiazepin-2-yl)methyl)phenyl)propanoic acid]: the pEC50 is 8.00 to 9.00.

For `CCc1cn(Cc2cccc(Cn3cc(COC(c4ccc(C)c(CN5C[C@@H](C)Oc6ccccc6S5(=O)=O)c4)C(C)(C)C(=O)O)nn3)c2)nn1` (some centres unmarked) [Example 38], the negative logarithm of the EC50 (pEC50) was 7.00 to 8.00.

As for `Cc1ccc(C(OCc2cn(Cc3cccc(Cn4cc(CO)nn4)c3)nn2)C(C)(C)C(=O)O)cc1CN1C[C@@H](C)Oc2ccccc2S1(=O)=O` (stereo partly drawn) [Example 39, 3-((1-(3-((4-(Hydroxymethyl)-1H-1,2,3-triazol-1-yl)methyl)benzyl)-1H-1,2,3-triazol-4-yl)methoxy)-2,2-dimethyl-3-(4-methyl-3-(((R)-4-methyl-1,1-dioxido-3,4-dihydro-2H-benzo[b][1,4,5]oxathiazepin-2-yl)methyl)phenyl)propanoic acid], the negative-log EC50 (pEC50) is 7.00 to 8.00.

Regarding `Cc1ccc(C(OCc2cn(Cc3cccc(Cn4cc(CCO)nn4)c3)nn2)C(C)(C)C(=O)O)cc1CN1C[C@@H](C)Oc2ccccc2S1(=O)=O` (stereo partly drawn) [Example 40, 3-((1-(3-((4-(2-Hydroxyethyl)-1H-1,2,3-triazol-1-yl)methyl)benzyl)-1H-1,2,3-triazol-4-yl)methoxy)-2,2-dimethyl-3-(4-methyl-3-(((R)-4-methyl-1,1-dioxido-3,4-dihydro-2H-benzo[b][1,4,5]oxathiazepin-2-yl)methyl)phenyl)propanoic acid], the pEC50 was 6.00 to 7.00.

As to `Cc1ccc(C(OCc2cn(Cc3cccc(Cn4cc(C(C)(C)O)nn4)c3)nn2)C(C)(C)C(=O)O)cc1CN1C[C@@H](C)Oc2ccccc2S1(=O)=O` (stereo partly drawn) [Example 41, 3-((1-(3-((4-(2-Hydroxypropan-2-yl)-1H-1,2,3-triazol-1-yl)methyl)benzyl)-1H-1,2,3-triazol-4-yl)methoxy)-2,2-dimethyl-3-(4-methyl-3-(((R)-4-methyl-1,1-dioxido-3,4-dihydro-2H-benzo[b][1,4,5]oxathiazepin-2-yl)methyl)phenyl)propanoic acid], the negative-log EC50 (pEC50) was 7.00 to 8.00.

The values are drawn from patent US12091409B2, “Ether linked triazoles as NRF2 activators” (ASTEX THERAPEUTICS LIMITED, priority 2016, dated 2024).
